Results reported in publication PMC10425210 (The Journal of Clinical Investigation, 2023).
Where two headings read alike, the source gives them in different places.

Legend:
HIV-1 [1] = assay: Antiviral assay against HIV-1 in MT-4 cells; type: cell-based; details: HIV-1IIIb in MT-4 cells
HIV-1 [2] = test system: HIV-1; parameters: method as in ref 11, 12 = [11]; PMID 32612233; doi:10.1038/s41586-020-2443-1; 11 Link JO et al Clinical targeting of HIV capsid protein with a long-acting small molecule Nature 2020 584 7822 614 618 10.1038/s41586-020-2443-1 32612233 PMC8188729 || [12]; 12 Yant SR, et al. GS-6207, A potent and selective first-in-class long-acting HIV-1 capsid inhibitor. Conference on Retroviruses and Opportunistic Infections. https://www.croiconference.org/abstract/g; details: HIV-1 in MT-4 cells; cited from earlier work
SHIV-SF162P3 = type: in vivo, rhesus macaques

CC(C)(C#Cc1ccc(-c2ccc(Cl)c3c(NS(C)(=O)=O)nn(CC(F)(F)F)c23)c([C@H](Cc2cc(F)cc(F)c2)NC(=O)Cn2nc(C(F)(F)F)c3c2C(F)(F)[C@@H]2C[C@H]32)n1)S(C)(=O)=O [LEN, Lenacapavir]
Hill coefficient (n) (HIV-1 [1]): 3.51 ± 0.31
EC50 (HIV-1 [2]): 100 pM
time of measurable anti-capsid (p27) antibodies (SHIV-SF162P3; 3 animals positive for SHIV by qPCR): ≤ 4 week after challenge
first detectable intact SHIV DNA (SHIV-SF162P3; 3 animals with confirmed viremia): 2 week after challenge
animals becoming infected (SHIV-SF162P3; LEN exposure above the 70 nM target at challenge): 0 of 6
Animal number, Infected (SHIV-SF162P3; LEN-dosed <target (70 nM)): 3
Animal number, Uninfected (SHIV-SF162P3; LEN-dosed <target (70 nM)): 2
Animal number, Infected (SHIV-SF162P3; LEN-dosed >target (70 nM)): 0
Animal number, Uninfected (SHIV-SF162P3; LEN-dosed >target (70 nM)): 6
Animal number, Infected (SHIV-SF162P3; LEN-dosed total): 3
Animal number, Uninfected (SHIV-SF162P3; LEN-dosed total): 8
Challenge outcome (SHIV-SF162P3; animal BM55, 20 mg/kg): Infected
Intact SHIV DNA / 10M PBMC (SHIV-SF162P3; animal BM55, 20 mg/kg, Wk 2 post challenge): 145.35 / 10M PBMC
Plasma SHIV RNA (SHIV-SF162P3; animal BM55, 20 mg/kg, week 6 post challenge): 7809 copies per mL
Plasma SHIV RNA (SHIV-SF162P3; animal BM55, 20 mg/kg, week 7 post challenge): 4541 copies per mL
Plasma SHIV RNA (SHIV-SF162P3; animal BM55, 20 mg/kg, week 8 post challenge): 69 copies per mL
Plasma SHIV RNA (SHIV-SF162P3; animal BM55, 20 mg/kg, week 9 post challenge): 62 copies per mL
Plasma SHIV RNA (SHIV-SF162P3; animal BM55, 20 mg/kg, week 10 post challenge): 62 copies per mL
Challenge outcome (SHIV-SF162P3; animal BN33, 20 mg/kg): Not infected
Intact SHIV DNA / 10M PBMC (SHIV-SF162P3; animal BN33, 20 mg/kg, Wk 2 post challenge): 1 / 10M PBMC
Intact SHIV DNA / 10M PBMC (SHIV-SF162P3; animal BN33, 20 mg/kg, Wk 10 post challenge): 1 / 10M PBMC
Plasma SHIV RNA (SHIV-SF162P3; animal BN33, 20 mg/kg, week 6 post challenge): 62 copies per mL
Plasma SHIV RNA (SHIV-SF162P3; animal BN33, 20 mg/kg, week 7 post challenge): 62 copies per mL
Plasma SHIV RNA (SHIV-SF162P3; animal BN33, 20 mg/kg, week 8 post challenge): 62 copies per mL
Plasma SHIV RNA (SHIV-SF162P3; animal BN33, 20 mg/kg, week 9 post challenge): 62 copies per mL
Plasma SHIV RNA (SHIV-SF162P3; animal BN33, 20 mg/kg, week 10 post challenge): 62 copies per mL
Challenge outcome (SHIV-SF162P3; animal CP67, 75 mg/kg): Not infected
Intact SHIV DNA / 10M PBMC (SHIV-SF162P3; animal CP67, 75 mg/kg, Wk 2 post challenge): 1 / 10M PBMC
Intact SHIV DNA / 10M PBMC (SHIV-SF162P3; animal CP67, 75 mg/kg, Wk 10 post challenge): 1 / 10M PBMC
Plasma SHIV RNA (SHIV-SF162P3; animal CP67, 75 mg/kg, week 0 post challenge): 62 copies per mL
Plasma SHIV RNA (SHIV-SF162P3; animal CP67, 75 mg/kg, week 1 post challenge): 62 copies per mL
Plasma SHIV RNA (SHIV-SF162P3; animal CP67, 75 mg/kg, week 2 post challenge): 62 copies per mL
Challenge outcome (SHIV-SF162P3; animal V229, 20 mg/kg): Infected
Intact SHIV DNA / 10M PBMC (SHIV-SF162P3; animal V229, 20 mg/kg, Wk 2 post challenge): 398.25 / 10M PBMC
Plasma SHIV RNA (SHIV-SF162P3; animal V229, 20 mg/kg, week 6 post challenge): 189 copies per mL
Plasma SHIV RNA (SHIV-SF162P3; animal V229, 20 mg/kg, week 7 post challenge): 79 copies per mL
Plasma SHIV RNA (SHIV-SF162P3; animal V229, 20 mg/kg, week 8 post challenge): 69 copies per mL
Plasma SHIV RNA (SHIV-SF162P3; animal V229, 20 mg/kg, week 9 post challenge): 62 copies per mL
Plasma SHIV RNA (SHIV-SF162P3; animal V229, 20 mg/kg, week 10 post challenge): 62 copies per mL
Challenge outcome (SHIV-SF162P3; animal V411, 50 mg/kg): Not infected
Intact SHIV DNA / 10M PBMC (SHIV-SF162P3; animal V411, 50 mg/kg, Wk 2 post challenge): 1 / 10M PBMC
Intact SHIV DNA / 10M PBMC (SHIV-SF162P3; animal V411, 50 mg/kg, Wk 10 post challenge): 1 / 10M PBMC
Plasma SHIV RNA (SHIV-SF162P3; animal V411, 50 mg/kg, week 0 post challenge): 62 copies per mL
Plasma SHIV RNA (SHIV-SF162P3; animal V411, 50 mg/kg, week 1 post challenge): 62 copies per mL
Plasma SHIV RNA (SHIV-SF162P3; animal V411, 50 mg/kg, week 2 post challenge): 62 copies per mL
Plasma SHIV RNA (SHIV-SF162P3; animal V411, 50 mg/kg, week 3 post challenge): 62 copies per mL
Plasma SHIV RNA (SHIV-SF162P3; animal V411, 50 mg/kg, week 4 post challenge): 62 copies per mL
Plasma SHIV RNA (SHIV-SF162P3; animal V411, 50 mg/kg, week 5 post challenge): 62 copies per mL
Plasma SHIV RNA (SHIV-SF162P3; animal V411, 50 mg/kg, week 6 post challenge): 62 copies per mL
Plasma SHIV RNA (SHIV-SF162P3; animal V411, 50 mg/kg, week 7 post challenge): 62 copies per mL
Plasma SHIV RNA (SHIV-SF162P3; animal V411, 50 mg/kg, week 8 post challenge): 62 copies per mL
Plasma SHIV RNA (SHIV-SF162P3; animal V411, 50 mg/kg, week 9 post challenge): 62 copies per mL
Plasma SHIV RNA (SHIV-SF162P3; animal V411, 50 mg/kg, week 10 post challenge): 62 copies per mL
Plasma SHIV RNA (SHIV-SF162P3; animal V411, 50 mg/kg, week 11 post challenge): 62 copies per mL
Plasma SHIV RNA (SHIV-SF162P3; animal V411, 50 mg/kg, week 12 post challenge): 62 copies per mL
Plasma SHIV RNA (SHIV-SF162P3; animal V411, 50 mg/kg, week 13 post challenge): 62 copies per mL
Plasma SHIV RNA (SHIV-SF162P3; animal V411, 50 mg/kg, week 14 post challenge): 62 copies per mL
Plasma SHIV RNA (SHIV-SF162P3; animal V411, 50 mg/kg, week 15 post challenge): 62 copies per mL
Plasma SHIV RNA (SHIV-SF162P3; animal V411, 50 mg/kg, week 16 post challenge): 62 copies per mL
Plasma SHIV RNA (SHIV-SF162P3; animal V411, 50 mg/kg, week 17 post challenge): 62 copies per mL
Plasma SHIV RNA (SHIV-SF162P3; animal V411, 50 mg/kg, week 18 post challenge): 62 copies per mL
Challenge outcome (SHIV-SF162P3; animal V417, 75 mg/kg): Not infected
Intact SHIV DNA / 10M PBMC (SHIV-SF162P3; animal V417, 75 mg/kg, Wk 2 post challenge): 1 / 10M PBMC
Intact SHIV DNA / 10M PBMC (SHIV-SF162P3; animal V417, 75 mg/kg, Wk 10 post challenge): 1 / 10M PBMC
Plasma SHIV RNA (SHIV-SF162P3; animal V417, 75 mg/kg, week 0 post challenge): 62 copies per mL
Plasma SHIV RNA (SHIV-SF162P3; animal V417, 75 mg/kg, week 1 post challenge): 62 copies per mL
Plasma SHIV RNA (SHIV-SF162P3; animal V417, 75 mg/kg, week 2 post challenge): 62 copies per mL
Challenge outcome (SHIV-SF162P3; animal V426, 75 mg/kg): Not infected
Intact SHIV DNA / 10M PBMC (SHIV-SF162P3; animal V426, 75 mg/kg, Wk 2 post challenge): 1 / 10M PBMC
Intact SHIV DNA / 10M PBMC (SHIV-SF162P3; animal V426, 75 mg/kg, Wk 10 post challenge): 1 / 10M PBMC
Plasma SHIV RNA (SHIV-SF162P3; animal V426, 75 mg/kg, week 0 post challenge): 62 copies per mL
Plasma SHIV RNA (SHIV-SF162P3; animal V426, 75 mg/kg, week 1 post challenge): 62 copies per mL
Plasma SHIV RNA (SHIV-SF162P3; animal V426, 75 mg/kg, week 2 post challenge): 62 copies per mL
Plasma SHIV RNA (SHIV-SF162P3; animal V426, 75 mg/kg, week 3 post challenge): 62 copies per mL
Challenge outcome (SHIV-SF162P3; animal V430, 50 mg/kg): Not infected
Intact SHIV DNA / 10M PBMC (SHIV-SF162P3; animal V430, 50 mg/kg, Wk 2 post challenge): 1 / 10M PBMC
